Data from patent US10253041B2, “7-phenylethylamino-4H-pyrimido[4,5-d][1,3]oxazin-2-one compounds and their use as mutant IDH1 inhibitors” (Eli Lilly and Company, priority 2015, dated 2019).

Columns and labels:
[1] = molecular target: T1, IDH2/R140Q (Homo sapiens, UniProt P48735, R140Q); assay: Biochemical assay for IDH2 R140Q mutant enzyme (2HG by RapidFire MS); conditions: mean ± standard deviation of the mean; 90 minutes reaction
T1 construct: His-tag (N); made in house; host or cells: E. coli
T1 sequence (P48735 40-452 R140Q): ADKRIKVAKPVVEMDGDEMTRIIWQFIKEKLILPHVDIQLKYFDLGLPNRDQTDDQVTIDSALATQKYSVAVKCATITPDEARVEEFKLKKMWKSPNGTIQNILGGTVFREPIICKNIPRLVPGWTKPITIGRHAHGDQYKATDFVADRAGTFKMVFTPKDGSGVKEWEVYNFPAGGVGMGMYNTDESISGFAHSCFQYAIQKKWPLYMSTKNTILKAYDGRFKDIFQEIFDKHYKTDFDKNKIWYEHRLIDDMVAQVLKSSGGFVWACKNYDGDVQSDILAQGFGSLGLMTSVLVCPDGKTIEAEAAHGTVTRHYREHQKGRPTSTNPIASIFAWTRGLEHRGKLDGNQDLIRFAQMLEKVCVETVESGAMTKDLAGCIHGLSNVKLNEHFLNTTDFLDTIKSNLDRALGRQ
Protocol: IDH1-R132H, IDH1-R132C, IDH2-R172K and IDH2-R140Q mutant enzymes catalyze the conversion of αKG to 2HG. 2HG is analyzed using in-line solid phase extraction and mass spectrometry. This analysis is carried out in a RapidFire® instrument coupled to a 6460 triple quadrupole mass spectrometer (G6460A Agilent).
IDH1 mutant (R132H and R132C) and IDH2 mutant (R140Q and R172K) proteins containing N-terminal His-tag are expressed in E. coli and purified using nickel affinity chromatography. The enzyme assays are carried out in V-bottom 96 well polypropylene plates containing 100 mM Tris-HCl buffer, 1 mM DTT, 0.005% TRITON™ X-100, 120 mM NaCl. For IDH1 R132H, α-ketoglutarate, NADPH and MnCl2 are included at final concentrations of 300 μM, 2.5 μM and 300 μM respectively. For IDH1 R132C, α-ketoglutarate, NADPH and MnCl2 are included at final concentrations of 100 μM, 10 μM and 100 μM respectively. For IDH2 R172K, α-ketoglutarate, NADPH and MnCl2 are included at final concentrations of 150 μM, 10 μM and 150 μM respectively. For IDH2 R140Q, α-ketoglutarate, NADPH and MnCl2 are included at final concentrations of 3000 μM, 10 μM and 100 μM respectively. Final pH=7.0. Test compound dissolved in DMSO stock is diluted in the reaction mix at a final DMSO concentration of 4%. Compounds are tested in dose-response format. The assay is started by addition of enzyme. Enzymes are used at the following final concentrations: IDH1 R132H, 2 nM; IDH1 R132C, 0.5 nM; IDH2 R172K, 1.2 nM; IDH2 R140Q, 1.2 nM. After 90 minutes the reaction is quenched by adding ACN (50:50) containing 3-hydroxy-1,5-pentanedioic-2,2,3,4,4-d5 acid (5d5-3HG) as an internal standard for mass spectrometry analysis and quantitation of reaction product. 2-Hydroxyglutarate (2HG) in quenched samples is separated using strong anionic exchange column chromatography (Phenomenex Strata-X-A SecurityGuard) and analyzed by mass spectrometry in a 6460 triple quadrupole mass spectrometer (G6460A Agilent). The 2HG signal detected is transformed into an analyte concentration using a calibration curve generated using known 2HG concentrations. […] IC50 values are obtained from the individual % inhibition values at different compound concentrations using a 4-parameter equation. These calculations are carried out using Activity Base (IDBS) or Screener (Genedata) data analysis programs.

[2] = molecular target: T2, IDH1 Wild-Type (Homo sapiens, UniProt O75874); assay: Biochemical assay for wild-type IDH1 enzyme (αKG by LC-MS); conditions: mean ± standard deviation of the mean
T2 construct: His-tag (N); made in house; host or cells: E. coli
T2 sequence (O75874 whole entry): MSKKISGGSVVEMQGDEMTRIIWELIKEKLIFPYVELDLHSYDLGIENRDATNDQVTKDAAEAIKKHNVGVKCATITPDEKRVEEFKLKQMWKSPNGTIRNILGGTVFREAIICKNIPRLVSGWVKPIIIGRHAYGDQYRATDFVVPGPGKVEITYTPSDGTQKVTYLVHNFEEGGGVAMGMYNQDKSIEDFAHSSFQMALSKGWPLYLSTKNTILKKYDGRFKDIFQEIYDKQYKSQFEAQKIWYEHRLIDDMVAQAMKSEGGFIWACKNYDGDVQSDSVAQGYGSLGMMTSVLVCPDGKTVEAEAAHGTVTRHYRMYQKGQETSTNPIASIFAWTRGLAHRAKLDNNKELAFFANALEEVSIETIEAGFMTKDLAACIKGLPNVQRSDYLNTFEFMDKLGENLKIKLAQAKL
Protocol: IDH1 and IDH2 enzymes catalyze the conversion of isocitrate to αKG. Wild-type IDH1 (National Center for Biotechnology Information, Accession: NP_001269316.1) and IDH2 (National Center for Biotechnology Information, Accession: EAX02082.1) proteins containing N-terminal His-tag are expressed in E. coli and purified using nickel affinity chromatography. The enzyme assays are carried out in V-bottom 96 well polypropylene plates containing 100 mM Tris-HCl buffer at pH 7.5, 1 mM DTT, 0.005% TRITON™ X-100, 120 mM NaCl. For the IDH1 wild-type assay isocitrate, NADP^+ and MnCl2 are included at the concentrations of 85 μM, 50 μuM and 20 μM respectively. For the IDH2 wild-type assay isocitrate, NADP^+ and MnCl2 are included at the concentrations of 30 μM, 50 μM and 10 μM respectively. Inhibitors dissolved in a DMSO stock solution are diluted in the reaction mixture at a final DMSO concentration of 4%. The enzyme assay is terminated (quenched) by adding ACN (50:50) containing d6-2-ketopentanedioic acid (d6-αKG) as an internal standard for mass spectrometry analysis. Ten microliters of reaction mixture is combined with 100 μL of water, 50 μL of 1 M O-benzylhydroxylamine in pyridine buffer (8.6% pyridine, pH 5), and 50 μL of 1 M N-(3-dimethylaminopropyl)-N-ethylcarbodiimide hydrochloride (EDC) in pyridine buffer. Following derivatization at room temperature for one hour, samples are extracted with 600 μL of EtOAc. Four hundred […] of the upper layer is removed, dried under heated nitrogen and reconstituted with 100 μL of MeOH/water (1:1). Ten μL of derivatized sample is injected onto an LC-MS system consisting of a Shimadzu Prominence 20A HPLC system and a The Thermo Quantum Ultra™ triple quadrupole mass spectrometer. Analytes are separated on a Waters XBridge™ C18 column (2.1×50 mm, […]) with a flow rate of 0.6 mL/minute. Mobile phase A is 0.1% formic acid in water and mobile phase B is MeOH. The αKG signal detected is transformed into analyte concentration using a calibration curve generated using known αKG concentrations. […] IC50 values are obtained from the individual % inhibition values at different compound concentrations using a 4-parameter equation. These calculations are carried out using Activity Base (IDBS) or Screener (Genedata) data analysis programs.

| Structure (SMILES) | IC50 [1] [µM] | IC50 [2] [µM] |
| --- | --- | --- |
| C=CC(=O)N1CCN(Cc2ccc([C@H](C)Nc3ncc4c(n3)N(C)C(=O)OC4)cc2)CC1 [Example 19, 1-Methyl-7-[[(1S)-1-[4-[(4-prop-2-enoylpiperazin-1-yl)methyl]phenyl]ethyl]amino]-4H-pyrimido[4,5-d][1,3]oxazin-2-one] | > 100 | 14.4 ± 0.2 |
| C=CC(=O)N1CCN(Cc2ccc([C@H](C)Nc3ncc4c(n3)N(CC(F)F)C(=O)OC4)cc2)CC1 [Example 20, 1-(2,2-difluoroethyl)-7-[[(1S)-1-[4-[(4-prop-2-enoylpiperazin-1-yl)methyl]phenyl]ethyl]amino]-4H-pyrimido[4,5-d][1,3]oxazin-2-one] | 83.5 ± 17.4 | 4.32 ± 0.37 |
| C=CC(=O)N1CCN(Cc2ccc([C@H](C)Nc3ncc4c(n3)N(CCF)C(=O)OC4)cc2)CC1 [Example 21, 1-(2-fluoroethyl)-7-[[(1S)-1-[4-[(4-prop-2-enoylpiperazin-1-yl)methyl]phenyl]ethyl]amino]-4H-pyrimido[4,5-d][1,3]oxazin-2-one] | > 100 | 6.58 ± 1.01 |
| C=CC(=O)N1CC=C(COc2ccc([C@H](C)Nc3ncc4c(n3)N(CC)C(=O)OC4)cc2)C1 [Example 22, 1-ethyl-7-[[(1S)-1-[4-[(1-prop-2-enoyl-2,5-dihydropyrrol-3-yl)methoxy]phenyl]ethyl]amino]-4H-pyrimido[4,5-d][1,3]oxazin-2-one] | 11.6 ± 2 | 0.653 ± 0.042 |
